Patent US20250114374A1, “BCL-2 INHIBITORS” (Newave Pharmaceutical Inc., priority 2021, published 2025)

tested on: RS4; 11 with G101V mutation; assay: In vitro anti-proliferation assay (ATPlite luminescence) in BCL-2-dependent ALL cell line RS4;11 with G101V mutation; type: cell-based; settings: Homo sapiens, RS4-11, 72 h; read-out: RS411-G101V IC50
Procedure: Cell antiproliferation was assayed by PerkinElmer ATPlite™ Luminescence Assay System. Briefly, the various test cancer cell lines were plated at a density of about 1×10^4 cells per well in Costar 96-well plates, and were incubated with different concentrations of compounds for about 72 hours in medium supplemented with 10% FBS. One lyophilized substrate solution vial was then reconstituted by adding 5 mL of substrate buffer solution, and was agitated gently until the solution was homogeneous. About 50 μL of mammalian cell lysis solution was added to 100 μL of cell suspension per well of a microplate, and the plate was shaken for about five minutes in an orbital shaker at ˜700 rpm. This procedure was used to lyse the cells and to stabilize the ATP. Next, 50 μL substrate solution was added to the wells and microplate was shaken for five minutes in an orbital shaker at ˜700 rpm. Finally, the luminescence was measured by a PerkinElmer TopCount® Microplate Scintillation Counter. Such assays, carried out with a range of doses of test compounds, allowed the determination of the cellular anti-antiproliferative IC50 of the compounds of the present invention.
The following table lists the IC50 values of another study for certain compounds of the invention.

| IC50 | Structure (SMILES) |
| --- | --- |
| 67.2 nM | CC(C)Oc1ccccc1[C@@H]1CN([C@H]2CCCOC2)CCN1C1CC2(CCN(c3ccc(C(=O)NS(=O)(=O)c4cc5c(c([N+](=O)[O-])c4)N[C@H](C4CCOCC4)CO5)c(N4c5cc6cc[nH]c6nc5O[C@H]5COCC[C@@H]54)c3)CC2)C1 [Example 175, 4-(2-((R)-2-(2-isopropoxyphenyl)-4-((S)-tetrahydro-2H-pyran-3-yl)piperazin-1-yl)-7-azaspiro[3.5]nonan-7-yl)-N-(((R)-5-nitro-3-(tetrahydro-2H-pyran-4-yl)-3,4-dihydro-2H-benzo[b][1,4]oxazin-7-yl)sulfonyl)-2-((5aS,9aR)-6,7,9,9a-tetrahydro-1H-pyrano[3,4-b]pyrrolo[3′,2′:5,6]pyrido[3,2-e][1,4]oxazin-5(5aH)-yl)benzamide] |
| 2.53 nM | COc1cc([C@@H](C)N2CCN(C3CC4(CCN(c5ccc(C(=O)NS(=O)(=O)c6cc7c(c([N+](=O)[O-])c6)N[C@H](C6CCOCC6)CO7)c(N6c7cc8cc[nH]c8nc7O[C@H]7COCC[C@@H]76)c5)CC4)C3)[C@H](c3ccccc3C)C2)cnc1N1CCOC[C@@H]1C [Example 194, 4-(2-((R)-4-((R)-1-(5-methoxy-6-((S)-3-methylmorpholino)pyridin-3-yl)ethyl)-2-(o-tolyl)piperazin-1-yl)-7-azaspiro[3.5]nonan-7-yl)-N-(((R)-5-nitro-3-(tetrahydro-2H-pyran-4-yl)-3,4-dihydro-2H-benzo[b][1,4]oxazin-7-yl)sulfonyl)-2-((5aS,9aR)-6,7,9,9a-tetrahydro-1H-pyrano[3,4-b]pyrrolo[3′,2′:5,6]pyrido[3,2-e][1,4]oxazin-5(5aH)-yl)benzamide] |

same assay, conditions: cellular anti-proliferative IC50, about 72 hours, medium with 10% FBS, ATPlite; read-out: RS411-G101V IC50

| Structure (SMILES) | IC50 |
| --- | --- |
| COc1ccc(CN2CCN(C3CC4(CCN(c5ccc(C(=O)NS(=O)(=O)c6ccc(NCC7CCC(C)(O)CC7)c([N+](=O)[O-])c6)c(N6c7cc8cc[nH]c8nc7O[C@H]7COCC[C@@H]76)c5)CC4)C3)[C@@H](c3ccccc3OC(C)C)C2)nc1 (stereo partly drawn) [Example 103, 2-[(3R,8S)-2,5-dioxa-9,15,17-triazatetracyclo[8.7.0.0^{3,8}.0^{12,16}]heptadeca-1(10),11,13,16-tetraen-9-yl]-4-{2-[(2S)-2-(2-isopropoxyphenyl)-4-[(5-methoxypyridin-2-yl)methyl]piperazin-1-yl]-7-azaspiro[3.5]nonan-7-yl}-N-[3-nitro-4-({[(1r,4r)-4-hydroxy-4-methylcyclohexyl]methyl}amino)benzenesulfonyl]benzamide] | 35.1 nM |
| Cc1ccccc1[C@@H]1CN([C@H]2CCOc3cc(F)c(F)cc32)CCN1C1CC2(CCN(c3ccc(C(=O)NS(=O)(=O)c4cc5c(c([N+](=O)[O-])c4)N[C@H](C4CCOCC4)CO5)c(N4c5cc6cc[nH]c6nc5O[C@H]5COCC[C@@H]54)c3)CC2)C1 [Example 170, 4-{2-[(2R)-4-[(4S)-6,7-difluoro-3,4-dihydro-2H-1-benzopyran-4-yl]-2-(2-methylphenyl)piperazin-1-yl]-7-azaspiro[3.5]nonan-7-yl}-2-[(3R,8S)-2,5-dioxa-9,15,17-triazatetracyclo[8.7.0.0^{3,8}.0^{12,16}]heptadeca-1(10),11,13,16-tetraen-9-yl]-N-[(3R)-5-nitro-3-(oxan-4-yl)-3,4-dihydro-2H-1,4-benzoxazin-7-ylsulfonyl]benzamide] | 205 nM |
| COc1cc(CN2CCN(C3CC4(CCN(c5ccc(C(=O)NS(=O)(=O)c6ccc(NCC7CCC(C)(O)CC7)c([N+](=O)[O-])c6)c(N6c7cc8cc[nH]c8nc7O[C@H]7COCC[C@@H]76)c5)CC4)C3)[C@@H](c3ccccc3OC(C)C)C2)cnc1C (stereo partly drawn) [Example 135, 2-[(3R,8S)-2,5-dioxa-9,15,17-triazatetracyclo[8.7.0.0^{3,8}.0^{12,16}]heptadeca-1(10),11,13,16-tetraen-9-yl]-4-{2-[(2S)-2-(2-isopropoxyphenyl)-4-[(5-methoxy-6-methylpyridin-3-yl)methyl]piperazin-1-yl]-7-azaspiro[3.5]nonan-7-yl}-N-[3-nitro-4-({[(1r,4r)-4-hydroxy-4-methylcyclohexyl]methyl}amino)benzenesulfonyl]benzamide] | 11.2 nM |
| Cc1ccccc1[C@@H]1CN(C2CCC(C)(O)CC2)CCN1C1CC2(CCN(c3ccc(C(=O)NS(=O)(=O)c4cc5c(c([N+](=O)[O-])c4)N[C@H](C4CCOCC4)CO5)c(N4c5cc6cc[nH]c6nc5O[C@H]5COCC[C@@H]54)c3)CC2)C1 (stereo partly drawn) [Example 199, 4-(2-((R)-4-((1r,4R)-4-hydroxy-4-methylcyclohexyl)-2-(o-tolyl)piperazin-1-yl)-7-azaspiro[3.5]nonan-7-yl)-N-(((R)-5-nitro-3-(tetrahydro-2H-pyran-4-yl)-3,4-dihydro-2H-benzo[b][1,4]oxazin-7-yl)sulfonyl)-2-((5aS,9aR)-6,7,9,9a-tetrahydro-1H-pyrano[3,4-b]pyrrolo[3′,2′:5,6]pyrido[3,2-e][1,4]oxazin-5(5aH)-yl)benzamide] | 50.4 nM |
| COc1ncc(CN2CCN(C3CC4(CCN(c5ccc(C(=O)NS(=O)(=O)c6ccc(NCC7CCC(C)(O)CC7)c([N+](=O)[O-])c6)c(N6c7cc8cc[nH]c8nc7O[C@H]7COCC[C@@H]76)c5)CC4)C3)[C@@H](c3ccccc3OC(C)C)C2)cc1N1CCOCC1 (stereo partly drawn) [Example 163, N-((4-((((1r,4r)-4-hydroxy-4-methylcyclohexyl)methyl)amino)-3-nitrophenyl)sulfonyl)-4-(2-((S)-2-(2-isopropoxyphenyl)-4-((6-methoxy-5-morpholinopyridin-3-yl)methyl)piperazin-1-yl)-7-azaspiro[3.5]nonan-7-yl)-2-((5aS,9aR)-6,7,9,9a-tetrahydro-1H-pyrano[3,4-b]pyrrolo[3′,2′:5,6]pyrido[3,2-e][1,4]oxazin-5(5aH)-yl)benzamide] | 27.9 nM |
| CC(C)Oc1ccccc1[C@@H]1CN([C@H]2COCc3c2ccc(F)c3F)CCN1C1CC2(CCN(c3ccc(C(=O)NS(=O)(=O)c4cc5c(c([N+](=O)[O-])c4)N[C@H](C4CCOCC4)CO5)c(N4c5cc6cc[nH]c6nc5O[C@H]5COCC[C@@H]54)c3)CC2)C1 [Example 249, 4-{2-[(2R)-4-[(4R)-7,8-difluoro-3,4-dihydro-1H-2-benzopyran-4-yl]-2-(2-isopropoxyphenyl)piperazin-1-yl]-7-azaspiro[3.5]nonan-7-yl}-2-[(3R,8S)-2,5-dioxa-9,15,17-triazatetracyclo[8.7.0.0^{3,8}.0^{12,16}]heptadeca-1(10),11,13,16-tetraen-9-yl]-N-[(3R)-5-nitro-3-(oxan-4-yl)-3,4-dihydro-2H-1,4-benzoxazin-7-ylsulfonyl]benzamide] | 12 nM |
| CC(C)Oc1ccccc1[C@@H]1CN(C2CCC3(CCOCC3)CC2)CCN1C1CC2(CCN(c3ccc(C(=O)NS(=O)(=O)c4cc5c(c([N+](=O)[O-])c4)N[C@H](C4CCOCC4)CO5)c(N4c5cc6cc[nH]c6nc5O[C@H]5COCC[C@@H]54)c3)CC2)C1 (stereo partly drawn) [Example 209, 2-[(3R,8S)-2,5-dioxa-9,15,17-triazatetracyclo[8.7.0.0^{3,8}.0^{12,16}]heptadeca-1(10),11,13,16-tetraen-9-yl]-4-{2-[(2R)-2-(2-isopropoxyphenyl)-4-{3-oxaspiro[5.5]undecan-9-yl}piperazin-1-yl]-7-azaspiro[3.5]nonan-7-yl}-N-[(3R)-5-nitro-3-(oxan-4-yl)-3,4-dihydro-2H-1,4-benzoxazin-7-ylsulfonyl]benzamide] | 16.3 nM |
